Reference: patent US20240238362A1, “ANTI-OBESITY PEPTIDES AND USES THEREOF” (Arizona Board of Regents on Behalf of the University of …, priority 2020, published 2024)
“Also recorded” adds a separate entry of the source.

What was measured:
3T3-LI mature adipocytes = experiment: Oil Red O staining of lipid accumulation in adipocytes; assay type: cell-based, murine; settings: for number and size / morphology of lipid droplets vs. non-treated control: Oil Red O micrographs, peptides at 100 μM, Day 21, three times per week for three weeks; for reduction of lipid accumulation / lipid contents (in words): murine-based in vitro systems, mature adipocytes; for decrease in degree of lipid accumulation: quantitative Oil Red O analysis, Day 21
Description: FIG. 2A-G: Representative photomicrographs showing Oil Red O-stained mature adipocytes treated with peptides at 100 μM (Day 21). H: Quantitative analysis of the lipids accumulated in the adipocytes (Day 21). Control absorbance: 0.526 (Red line). I: Relative cell counts on day 21.
The effects of the minimal short peptides in blocking lipid accumulation in adipocytes were compared with their parent full-length peptide. After generating five different 3 amino acid fragments (KGG, GGR, GRA, RAK, and AKD) from the original ATS peptide (KGGRAKD (SEQ ID NO:1)), each peptide was administered to 3T3-LI pre-adipocytes in five varying concentrations. Peptides were treated to the adipocytes three times per week for three weeks. Oil Red O staining was utilized to assess the lipid contents in mature adipocytes in culture. The morphological characteristics of 3T3-LI mature adipocytes were observed by microscopy. […] Furthermore, the lipids were quantitatively analyzed. […] At the end point, the cell number was almost the same across the treatment groups, meaning that the reduction in lipid accumulation is not a consequence of toxicity of the peptides (FIG. 2I).
The number of viable cells is counted prior to Oil Red O staining using Cell Counting Kit 8 (Dojindo). This cell viability study allows one to determine potential toxicities of the peptides and compensate for cell number variation-causing artifacts. Oil Red O is dissolved in isopropanol at […] to create a working solution. 12 ml of Oil Red O working solution is mixed with 8 ml dH2O and incubated for 10 minutes. This solution is then filtered using a 0.2 μm syringe filter. Adipocytes seeded on 96-well plates are washed with PBS twice. 10% formaldehyde is added for initial fixation and the plates are incubated for at least 30 minutes. The formaldehyde is removed and the cells are once again washed twice, this time with dH2O. 60% isopropanol is added to each well. The plates are incubated for 5 minutes. The isopropanol is removed from the wells and replaced with Oil Red O working solution. The plates are incubated for an additional 10 minutes. The Oil Red O solution is removed and washed four times with dH2O. Lastly, digital micrographs of the lipid droplets in adipocytes are taken using a light microscope. After the staining protocol, all plates are washed three times with 60% isopropanol. Each time, 5 minutes of gentle rocking was used. The Oil Red O is extracted with 100% isopropanol with gentle rocking for 5 minutes. 200 μl isopropanol per well is used as a background to measure absorbance at 492 nm using a BioTek microplate reader.

[1] = system: DIO mice, obesity progression model (OPM); experiment: Body weight in pre-obese mice fed high fat diet (obesity progression model, OPM); assay type: in vivo; settings: for anti-obesity efficacy (body weight): oral administration
Description: (§1) FIG. 3A-H: IP Preobese Body Weight. Relative body weight measurements for IP injected pre-obese mice. I-J: Body weight change. Changes in body weight compared using HFD control group as baseline value A1-F1: GTT. Blood glucose levels of peptide groups at endpoint, post-glucose injection (after 16 h fasting). A2-F2: ITT. Blood glucose levels of peptide groups at endpoint, post-insulin injection (after 6 h fasting).
as §1, with “4A-F: SC Pre-obese” for “3A-H: IP Preobese”, “SC” for “IP”, “G-H:” for “I-J:”, “value.” for “value”
(§2) FIG. 7A-F: Oral/Feeding Pre-obese Body Weight. Relative body weight measurements for orally administered pre-obese mice. A1-F1: GTT. Blood glucose levels at endpoint, post-glucose injection (after 16 h fasting). A2-F2: ITT. Blood glucose levels at endpoint, post-insulin injection (after 6 h fasting).
Prior to oral administration, peptides were administered to DIO mice via intraperitoneal (IP) and subcutaneous (SC) injections. This study was divided into two phases:
(§3) In the first phase, peptides were tested on pre-obese mice that were being fed high fat diet (HFD) to induce obesity (obesity progression model, OPM). In the second phase, these peptides were given to mice that had already developed obesity (obesity model, OM). […] As the activity of these three peptides varies depending on the injection route and the disease status, all three peptides, GGR, RAK, and AKD, were tested by oral administration.
Prior to oral administration, GGR, RAK, AKD, full-length ATS, and scrambled RKG peptides were administered to OPM mice via IP and SC injections to further screen an ideal peptide composition. PBS was included as a vehicle group. GGR, RAK, and AKD peptides were discovered to impede body weight gain in OPM mice. GGR and RAK were effective when given IP injections and AKD was effective by SC injections (FIGS. 3, 4).

[2] = system: epididymal fat tissues of DIO mice; experiment: Histological analysis of fat pads (adipocyte number and size); assay type: in vivo
Description: FIG. 9. Histological analysis fat pads. An automated system detected and counted adipocytes (yellow line). Adipocyte number and size: average of 3 hpf images from 2 mice (total 6 images/group).
GGR, RAK, and AKD peptides were tested in OPM and OM mice by oral administration. […] In obesity progression, adipocytes increase in both number and size due to escalating lipid accumulation (Parlee, S. D., et al., Methods Enzymol 537, 93-122, (2014)). Using the methods described above, abdominal fat pads of GGR, RAK, AKD, or PBS-treated DIO mice were histologically analyzed. Epididymal fat tissues were harvested from two mice per experimental group. All samples were fixed in 4% paraformaldehyde, H&E-stained, and imaged. At a 10× magnification, adipocyte cell counting was performed on the digital slide images using an automated adipocyte counting macro with the ImageJ software. A default thresholding method was used and [cell] sizing boundaries of 40-40,000 were set. Limitations of the segmentation tool led to some erroneous selections or regions of interest (ROI), which were manually corrected by adding or erasing lines. The number of cells per representative field were then determined using the ROI manager in ImageJ. Two or three high power fields (hpf) per tissue and two tissue samples per group were analyzed to reduce variability. Average cell count for each group was calculated accordingly. Areas of all adipocytes of interest were measured using the ROI measurement tool (ImageJ) and average area per cell was calculated accordingly.
The primary function of adipocytes is to store energy in the form of lipids. The volume of lipid stored in an adipocyte cell increases as the third power of the diameter. Because mature adipocytes are composed of large lipid droplets that are surrounded by very thin cytoplasmic layers, the increase in volume of an adipocyte cell likely indicates increased lipid storage. Thus, smaller adipocyte size/area translates to reduced lipid accumulation.

[3] = system: DIO mice, obesity model (OM); experiment: Body weight in mice that had already developed obesity (obesity model, OM); assay type: in vivo; settings: OM (post-obese) mice
Description: as §1, with “5A-F:” for “3A-H:”, “Post-obese” for “Preobese”, “post-obese” for “pre-obese”, “G-H:” for “I-J:”, “value.” for “value”
as §1, with “6A-F: SC Post-obese” for “3A-H: IP Preobese”, “SC” for “IP”, “post-obese” for “pre-obese”, “G-H:” for “I-J:”, “value. A1-D1,F1:” for “value A1-F1:”, “A2-D2,F2:” for “A2-F2:”
as §2, with “8A-F:” for “7A-F:”, “Post-obese” for “Pre-obese”, “post-obese” for “pre-obese”
as §3
The second phase signified the post-obesity stage, where the same methods from phase 1 were used on OM mice.

prohibitin = molecular target: T1, prohibitin (Mus musculus, UniProt P67778); experiment: ATS/prohibitin binding by ATS magnetic bead immunoprecipitation and western blot; settings: fractionated proteins from adipocytes incubated with ATS magnetic beads, western blot
T1 construct: Fractionated proteins isolated from adipocytes were incubated with the ATS magnetic beads; endogenous in cells; probably 3T3-L1
T1 sequence (P67778 2-272 limits assumed): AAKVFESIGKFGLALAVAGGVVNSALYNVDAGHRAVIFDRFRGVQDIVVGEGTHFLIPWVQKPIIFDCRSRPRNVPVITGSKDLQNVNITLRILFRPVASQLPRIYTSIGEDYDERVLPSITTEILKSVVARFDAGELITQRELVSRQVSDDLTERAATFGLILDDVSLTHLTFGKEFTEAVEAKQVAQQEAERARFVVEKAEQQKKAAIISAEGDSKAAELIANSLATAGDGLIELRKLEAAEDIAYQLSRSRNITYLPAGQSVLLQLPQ
From the text: FIG. 1A: ATS/prohibitin binding determined by immunoprecipitation and western blot. FIG. 1B: Location and degree of prohibitin expression in pre- or mature adipocytes. PM, plasma membrane; Cyt, Cytoplasm. C: Confocal micrographs showing the location of prohibitin in mature- or pre-adipocytes.
It was confirmed that prohibitin shifts its location to the cell membrane as adipogenesis progresses and ATS binds to prohibition. The ATS/prohibitin binding was verified in pre- or mature adipocytes (Won, Y. W. et al. Nat Mater 13, 1157-1164, (2014)). Fractionated proteins isolated from adipocytes were incubated with the ATS magnetic beads and the protein captured by ATS was identified by western blotting. […] Prohibitin is observed in several intracellular locations at varying expression levels depending on the degree of adipogenesis (Wang, P. et al. Cell Mol Life Sci 61, 2405-2417, (2004); Patel, N. et al. Proceedings of the National Academy of Sciences of the United States of America 107, 2503-2508, (2010)). The degree and location of prohibitin expression in pre- or mature adipocytes was determined. […] Confocal microscopy also verified the prohibitin expression on the cell membrane of mature adipocytes (FIG. 1C). High-level prohibitin expression on the cell membrane of mature adipocytes is important to the ATS/prohibitin interaction.

Substance	number and size / morphology of lipid droplets vs. non-treated control (3T3-LI mature adipocytes)	prevention of body weight gain ([1]; IP injections)	reduction of lipid accumulation / lipid contents (in words) (3T3-LI mature adipocytes)	decrease in degree of lipid accumulation (3T3-LI mature adipocytes)	prevention of body weight gain ([3]; IP injections)	prevention of body weight gain ([3]; SC injections)	further results
GRA	moderate differences in the morphology of lipid droplets						
RAK	smaller than those in the non-treated control	positive effects on prevention of body weight gain; also recorded: effective	able to reduce lipid contents in mature Adipocytes; also recorded: effective in reducing lipid accumulation	approximately 20%	positive effects on prevention of body weight gain	effective	anti-obesity efficacy (body weight) [1]: efficacious over GGR; also recorded: has anti-obesity efficacy in both models; activity by histological analysis of the fat pads ([2]; DIO mice): more active than GGR; also recorded: highest efficacy; average cell count per field ([2]; H&E-stained epididymal fat, 10× magnification, among GGR, RAK, AKD, PBS groups): highest average cell count per field; average adipocyte area per cell ([2]; H&E-stained epididymal fat, among GGR, RAK, AKD, PBS groups): lowest average adipocyte area per cell; anti-obesity efficacy (body weight) ([3]; oral administration): has anti-obesity efficacy in both models
RKG [reference compound]		did not show meaningful efficacy over the vehicle group; also recorded: no anti-obese effects; also recorded: no anti-obesity effects			did not show meaningful efficacy over the vehicle group; also recorded: no anti-obesity effects	no anti-obesity effects	prevention of body weight gain ([1]; SC injections): no anti-obese effects; also recorded: no anti-obesity effects
KGGRAKD (SEQ ID NO:1) [ATS, parent full-length peptide, reference compound]	smaller than those in the non-treated control						ATS/prohibitin binding (prohibitin): specifically binds to prohibitin
GGR	smaller than those in the non-treated control	positive effects on prevention of body weight gain; also recorded: effective	able to reduce lipid contents in mature Adipocytes; also recorded: effective in reducing lipid accumulation	approximately 20%	positive effects on prevention of body weight gain	effective	
AKD	smaller than those in the non-treated control		able to reduce lipid contents in mature Adipocytes; also recorded: effective in reducing lipid accumulation	approximately 20%			prevention of body weight gain ([1]; SC injections): best working peptide; also recorded: effective; anti-obesity efficacy (body weight) [1]: efficacious over GGR
KGG	moderate differences in the morphology of lipid droplets						
